This is an account of results in patent US20050277161A1, “Phosphopeptide antigens associated with MHC molecules” (priority 2004, published 2005).

Non-standard residues stand in square brackets, D forms with d. No end group written: not given here. pS = N[C@@H](COP(=O)(O)O)C(=O)O

This test relates to COV413.AAD.A4 ovarian carcinoma, DM331.AAD.A4 and SLM2.AAD.A1 melanomas, MCF7.AAD.A2 and MDAMB231.AAD breast carcinomas, and JY EBV-BLCL. In words: Recognition of naturally processed phosphopeptides on cancer cells by phosphopeptide-specific CTL (murine IFNγ ELISA). It is filed as cell-based. Particulars: for recognition of the phosphopeptide on cancer cell lines by phosphopeptide-specific CTL (murine IFNγ in supernatant): murine CTL lines 50,000/well incubated 24 hours with 25,000 cancer cells/well, ovarian carcinoma, melanoma and breast carcinoma lines; for recognition of the phosphopeptide on the control cell line by phosphopeptide-specific CTL (murine IFNγ in supernatant): murine CTL lines 50,000/well incubated 24 hours with 25,000 cells/well, control JY EBV-BLCL. As to the method: FIG. 1, comprising FIGS. 1A and 1B, is a graphic illustration of the recognition of naturally processed and presented phosphorylated peptides on cancer cells by the phosphopeptide-specific CTL. Phosphopeptide-specific CTL were incubated with the following cancer cell lines or EBV-transformed B lymphoblastoid cell lines (BLCL): COV413.AAD.A4 ovarian carcinoma, DM331 .AAD.A4 and SLM2.AAD.A1 melanomas, MCF7.AAD.A2 and MDAMB231.AAD breast carcinomas, and JY EBV-BLCL. Supernatants were harvested and evaluated for the presence of murine IFNγ (produced by murine CTL lines). […] The ordinate indicates murine IFNγ in pg/ml. The abscissa indicates each cell line.
CTL specific for two of the antigen peptides were generated by long term culture with the peptides. Two CTL lines specific for the antigen peptide GLLGpSPVRA, lines 6850 and 6960, SEQ ID NO: 13, and two CTL lines specific for the antigen peptide RVApSPTSGV, SEQ ID NO: 14, lines 5183 and 63 were used to detect these two antigen peptides on cancer cells. The phosphopeptide-specific CTL (50,000 CTL/well) were incubated 24 hours with the following cancer cell lines or EBV-transformed B lymphoblastoid cell lines (BLCL) (25,000 cells/well): COV413.AAD.A4 ovarian carcinoma, DM331.AAD.A4 and SLM2.AAD.A1 melanomas, MCF7.AAD.A2 and MDAMB231.AAD breast carcinomas, and JY EBV-BLCL. Supernatants were harvested 24 hours later and evaluated for the presence of murine IFNγ (produced by murine CTL lines) by ELISA (eBioscience Ready-Set-go murine IFNγ ELISA kit).

On to “GLLGpSPVRA (GLLG[pS]PVRA; listed as Homo sapiens) [phosphopeptide from CDC25b:p63; HLA-A2.1]”, for which the “recognition of the phosphopeptide on cancer cell lines by phosphopeptide-specific CTL (murine IFNγ in supernatant)” value was “recognize the phosphopeptide on all the cancer cell lines” and the “recognition of the phosphopeptide on the control cell line by phosphopeptide-specific CTL (murine IFNγ in supernatant)” value is “not the control cell line”.

“RVApSPTSGV (RVA[pS]PTSGV; listed as Homo sapiens) [phosphopeptide from Insulin receptor substrate-2; HLA-A2.1]”: the “recognition of the phosphopeptide on cancer cell lines by phosphopeptide-specific CTL (murine IFNγ in supernatant)” value is recorded as “recognize the phosphopeptide on all the cancer cell lines” and the “recognition of the phosphopeptide on the control cell line by phosphopeptide-specific CTL (murine IFNγ in supernatant)” value was “not the control cell line”.
